Test results published in ChEMBL document CHEMBL4739717, “Methods of treating cartilage disorders through inhibition of clk and dyrk” (2020).

How the values were obtained:
[1] = Effect on Wnt signaling pathway in human SW480 cells harbouring TCF/LEF luciferase reporter gene and SP5-Luc reporter gene incubated for 36 to 48 hrs by luminescence assay; type: cell-based
[2] = Inhibition of IL1-beta induced MMP3 expression levels in human chondrocytes assessed as MMP3 levels incubated for 2hrs followed by IL1-beta stimulation and measured after overnight incubation by LANCE assay; type: functional, cell-based; details: Chondrocyte
[3] = molecular target: Dual specificity tyrosine-phosphorylation-regulated kinase 1A (Homo sapiens, UniProt Q13627); experiment: Inhibition of recombinant DYRK1A (unknown origin) using Ser/Thr 18 peptide as substrate incubated for 1 hr in presence of ATP by FRET assay
[4] = Induction of chondrogenesis in human MSC assessed as incubated for 6 days by rhodamine B and Nile red staining based imaging analysis; type: functional; details: bmmsc

Structure (SMILES) | EC50 [1] [µM] | EC50 [2] [µM] | EC50 [3] [µM] | EC50 [4] [µM]
CN1CCN(c2cc(C(=O)Nc3ncc4ccc(-c5cnn(C)c5)cc4n3)ccn2)CC1 | 0.468 | 0.417 |  | 
CC(C)Nc1cncc(-c2ccc3cnc(NC(=O)c4cccc(C5CCN(C)CC5)c4)cc3c2)n1 | 0.132 | 3 |  | 
CN1CCC2(CC1)CN(c1cc(C(=O)Nc3cc4cc(-c5cnn(C)c5CO)ccc4cn3)ccn1)C2 |  | 3 |  | 
CN1CCCN(c2cc(C(=O)Nc3cc4cc(-c5cnn(C)c5)ccc4cn3)ccn2)CC1 |  | 3 |  | 
O=C(Nc1cc2cc(-c3cncc(NC4CCNCC4)n3)ccc2cn1)C1CC(F)(F)C1 | 0.381 |  |  | 
O=C(Nc1cc2cc(-c3cncc(NC4CCNCC4)n3)ncc2cn1)C1CCOCC1 | 3.64 | 0.0466 |  | 
CC(C)CC(=O)Nc1cncc(-c2cnc3[nH]nc(-c4cc5c(-c6cc(F)cc(CNS(C)(=O)=O)c6)nccc5[nH]4)c3c2)c1 | 1.51 |  | 0.019 | 0.3
CN1CCC(n2cc(C(=O)Nc3cc4cc(-c5cnn(C)c5)ccc4cn3)cn2)CC1 | 0.014 |  |  | 
O=C(Nc1cnccc1NC(=O)C1CC1)c1n[nH]c2ccc(-c3cccnc3)cc12 | 0.068 |  | 0.006 | 
CN(C)CCNc1cc(C(=O)Nc2cc3cc(-c4cnn(C)c4)ccc3cn2)ccn1 |  | 0.306 |  | 
CN(C)Cc1cncc(NC(=O)c2n[nH]c3ccc(-c4cncc(CN5CCCC5)c4)cc23)c1 | 0.33 |  | 0.002 | 
CN1CCN(c2ccc(C(=O)Nc3cc4cc(-c5cnn(C)c5)ccc4cn3)cn2)CC1 |  | 0.0095 |  | 
CS(=O)(=O)NCc1cc(F)cc(-c2nccc3[nH]c(-c4n[nH]c5ncc(-c6cncc(NC(=O)C7CCC7)c6)cc45)cc23)c1 | 3.64 |  | 0.016 | 0.3
O=C(Nc1cc2cc(-c3cncc(NCC4(F)CNC4)n3)ncc2cn1)C1CC1 | 0.383 |  |  | 
CN1CCN(c2cc(C(=O)Nc3cc4cc(-c5cnn(C)c5)c(F)cc4cn3)ccn2)CC1 |  | 0.0004 |  | 
O=C(Nc1ccnnc1)c1n[nH]c2ccc(-c3cccnc3)cc12 | 0.106 |  | 0.001 | 
O=C(Nc1ccc2c(c1)OCCO2)c1n[nH]c2ccc(-c3cncc(CN4CCCCC4)c3)cc12 | 0.125 |  | 0.003 | 
O=C(Nc1cnccn1)c1n[nH]c2ccc(-c3cncc(CN4CCCCC4)c3)cc12 | 0.289 |  | 0.001 | 
NC1CN(c2cc(C(=O)Nc3cc4cc(-c5cnco5)ccc4cn3)ccn2)C1 |  | 3 |  | 
Cc1ncc(NC(=O)c2n[nH]c3ccc(-c4cnc(C)n4C)cc23)s1 | 0.335 |  | 0.004 | 
CN1CCN(Cc2ccc(NC(=O)c3n[nH]c4ccc(-c5cccnc5)cc34)cn2)CC1 | 0.037 |  | 0.001 | 
CN(C)CCOc1cncc(-c2cnc3[nH]nc(-c4nc5c(-c6cccc(F)c6)nccc5[nH]4)c3c2)c1 | 0.253 |  | 0.005 | 
CN1CCC(n2cc(C(=O)Nc3cc4cc(-c5cnc6cc[nH]c6c5)ccc4cn3)cn2)CC1 | 0.0268 | 3 |  | 
CN(C)CCN(C)c1ccc(NC(=O)c2n[nH]c3ccc(-c4cncc(CN5CCCCC5)c4)cc23)cn1 | 0.065 |  | 0.001 | 
CC(C)CC(=O)Nc1cncc(-c2ccc3[nH]nc(-c4nc5c(N6CCN(C)CC6)cccc5[nH]4)c3c2)c1 | 0.268 |  | 0.005 | 
CS(=O)(=O)NCc1cc(F)cc(-c2nccc3[nH]c(-c4n[nH]c5ncc(-c6cncc(OCc7ccccc7)c6)cc45)cc23)c1 | 3.99 |  | 0.097 | 

Structure (SMILES) | EC50 [1] [µM] | EC50 [2] [µM] | EC50 [3] [µM] | EC50 [4] [µM]
CN(C)C1CCN(c2cc(C(=O)Nc3cc4cc(-c5cnn(C)c5)ccc4cn3)ccn2)CC1 |  | 0.697 |  | 
O=C(Nc1cncc(-c2ccc3[nH]nc(-c4cc5c(-c6cccnc6)nccc5[nH]4)c3c2)c1)c1ccccc1 | 0.421 |  | 0.019 | 
Cc1nnc(C(=O)Nc2cc3cc(-c4cncn4C)ccc3cn2)s1 | 1.89 | 0.0715 |  | 
CN1CCN(c2cc(C(=O)Nc3cc4nc(-c5cnn(C)c5)ccc4cn3)ccn2)CC1 | 0.102 | 3 |  | 
CC(C)n1cc(C(=O)Nc2cc3cc(-c4cncn4C(C)C)ccc3cn2)cn1 | 0.115 | 0.0046 |  | 
CC(C)(C)C(=O)Nc1cncc(-c2ccc3[nH]nc(-c4nc5c(-c6ccc(F)cc6)cncc5[nH]4)c3c2)c1 | 0.004 |  | 0.055 | 0.1
CN1CCN(c2cc(C(=O)Nc3cc4cc(-c5ccc(N)nc5)ccc4cn3)ccn2)CC1 | 0.71 | 0.798 |  | 
CN(C)C(=O)Nc1cncc(-c2ccc3[nH]nc(C(=O)Nc4cccnc4)c3c2)c1 | 0.176 |  | 0.001 | 
CCNCc1cncc(-c2ccc3[nH]nc(-c4cc5cnccc5[nH]4)c3c2)c1 | 1.03 |  | 0.003 | 0.01
O=C(NCc1cc(F)cc(F)c1)c1n[nH]c2ccc(-c3cncc(CN4CCCCC4)c3)cc12 | 1.82 | 3 |  | 
CN1CCC2(CC1)CN(c1cc(C(=O)Nc3cc4cc(-c5cnn(C)c5)ccc4cn3)ccn1)C2 |  | 3 |  | 
CN1CC=C(c2cc(C(=O)Nc3cc4cc(-c5cncc(NC(C)(C)C)n5)cnc4cn3)ccn2)CC1 | 0.357 | 3 |  | 
CN1CCN(c2cc(C(=O)Nc3cc4cc(-c5cnn(C6CC6)c5)ccc4cn3)ccn2)CC1 |  | 0.0122 |  | 
CN(C)Cc1cncc(-c2cnc3[nH]nc(-c4nc5c(-c6ccsc6)cccc5[nH]4)c3c2)c1 | 0.032 |  | 0.083 | 0.3
CC(C)CC(=O)Nc1cncc(-c2cc3c(-c4cc5c(-c6cc(F)cc(CNS(C)(=O)=O)c6)cncc5[nH]4)n[nH]c3cn2)c1 | > 10 |  | 0.099 | 
Cc1n[nH]c2ccc(-c3cncc(OC[C@@H](N)Cc4ccccc4)c3)cc12 | 0.262 | 3 |  | 
Cc1cc2[nH]nc(C(=O)Nc3ccc(CN4CCCC4)cc3)c2cc1-c1cccnc1 | 1.09 |  |  | 
Cc1ncc(C(=O)Nc2cc3nc(-c4cnc(C)n4C)ccc3cn2)s1 | 0.107 | 0.0087 |  | 
CC(C)OC(=O)N1CCC(n2cc(C(=O)Nc3cc4cc(-c5cnn(C)c5)ncc4cn3)cn2)CC1 | 0.824 | 0.154 |  | 
Cc1ncc(-c2ccc3cnc(NC(=O)c4ccc(OC(C)C)cc4)cc3c2)n1C |  | 0.0105 |  | 
O=C(Nc1cc2cc(-c3cncc(NC4CCNCC4)n3)ccc2cn1)C1CCCCC1 | 0.319 | 3 |  | 
Fc1cccc(-c2cncc3[nH]c(-c4n[nH]cc4C#Cc4cncc(OC5CCNCC5)c4)nc23)c1 | 4.64 |  | 0.056 | 
CN(C)Cc1ccc(C(=O)Nc2cc3cc(-c4cnn(C)c4)ccc3cn2)cc1 |  | 0.0474 |  | 
O=C(Nc1cc2cc(-c3cncs3)ccc2cn1)c1ccc2c(c1)CNCC2 |  | 3 |  | 
Cn1cncc1-c1ccc2cnc(NC(=O)c3ccnc(N4CCN(C5CC5)CC4)c3)cc2c1 |  | 3 |  | 
O=C(Nc1ccc(N2CCC(O)CC2)nc1)c1n[nH]c2ccc(-c3cncc(CN4CCCCC4)c3)cc12 | 0.049 |  | 0.001 | 

Structure (SMILES) | EC50 [1] [µM] | EC50 [2] [µM] | EC50 [3] [µM] | EC50 [4] [µM]
CC(C)OC(=O)N1CCC(n2cc(C(=O)Nc3cc4cc(-c5cnn(C)c5)ccc4cn3)cn2)CC1 | 0.0545 | 0.0881 |  | 
Cc1n[nH]c2ccc(-c3cncc(OCCN)c3)cc12 | 1.64 | 3 |  | 
CNc1nc(NCc2ncccn2)c2c(-c3ccc4ncccc4c3)c[nH]c2n1 | 0.0733 |  | 0.007 | 
CN1CCN(c2cc(C(=O)Nc3cc4c(Cl)c(-c5cnn(C)c5)ccc4cn3)ccn2)CC1 |  | 0.898 |  | 
Nc1cncc(-c2cnc3[nH]nc(-c4cc5c(-c6ccncc6)cncc5[nH]4)c3c2)c1 | > 10 |  | 0.003 | 
CN1Cc2ccc(C(=O)Nc3cc4cc(-c5cncn5C)ccc4cn3)cc2C1 |  | 3 |  | 
CCNCc1cncc(-c2cnc3[nH]nc(-c4cc5c(-c6cc(F)cc(CNS(C)(=O)=O)c6)nccc5[nH]4)c3c2)c1 | > 10 |  | 0.03 | 0.3
COc1cncc(-c2cc3c(-c4nc5c(-c6cccc(F)c6)cncc5[nH]4)n[nH]c3cn2)c1 | 0.0313 |  | 0.026 | 0.3
Cn1ncc(-c2ccc3cnc(NC(=O)c4ccc(OC(F)F)cc4)cc3c2)c1CO |  | 1.37 |  | 
CN1CCN(c2ccc(NC(=O)c3n[nH]c4ccc(-c5cncc(NC(=O)C6CC6)c5)cc34)cn2)CC1 | 0.08 |  | 0.001 | 
O=C(Nc1ccnnc1)c1n[nH]c2ccc(-c3cncc(CN4CCCCC4)c3)cc12 | 0.04 |  | 0.001 | 
CC(C)CC(=O)Nc1cncc(-c2cnc3[nH]nc(-c4cc5c(-c6cc(F)cc(CNS(C)(=O)=O)c6)cncc5[nH]4)c3c2)c1 | 2.51 |  | 0.016 | 
Cc1cc(C(=O)Nc2cc3cc(-c4cnn(C)c4)ccc3cn2)cc(N2CCN(C)CC2)n1 |  | 3 |  | 
CC(C)Nc1cncc(-c2ccc3cnc(NC(=O)C4CCN(CCF)CC4)cc3c2)n1 | 0.178 |  |  | 
Cc1n[nH]c2ccc(-c3cncc(N[C@H]4CC[C@H](O)CC4)n3)cc12 | 0.095 |  | 0.001 | 
CN1CCc2cc(C(=O)Nc3cc4cc(-c5cn(C)nn5)ccc4cn3)ccc2C1 |  | 3 |  | 
Cn1cc(-c2ccc3cnc(NC(=O)c4ccc5cnccc5c4)cc3c2)cn1 |  | 3 |  | 
Cn1cc(-c2ccc3cnc(NC(=O)c4ccc5c(c4)CNCC5)cc3c2)cn1 |  | 1.63 |  | 
O=C(Nc1cccnc1)c1n[nH]c2ccc(-c3cncc(NC(=O)N4CCOCC4)c3)cc12 | 1.25 |  | 0.002 | 
CN1CCN(c2cc(C(=O)Nc3cc4cc(-c5cnn(C)c5N)ccc4cn3)ccn2)CC1 |  | 0.0115 |  | 
CN1CCN(c2cc(C(=O)Nc3cc4cc(-c5cnc(N)s5)ccc4cn3)ccn2)CC1 |  | 0.0004 |  | 
CCCC(=O)Nc1cncc(-c2cc3c(-c4nc5c(-c6cccc(F)c6)nccc5[nH]4)n[nH]c3cn2)c1 | 0.0188 |  | 0.053 | 0.01
CN1CCN(c2ccc(C(=O)Nc3cc4cc(-c5cnn6c5CN(CCF)CC6)ccc4cn3)cn2)CC1 |  | 3 |  | 
O=C(Nc1ccc(-c2ccccc2)nc1)c1n[nH]c2ccc(-c3cncc(CN4CCCCC4)c3)cc12 | 0.101 |  | 0.007 | 
